From BindingDB's records for doi:10.1016/j.bmcl.2012.03.007 (Bristol-Myers Squibb, 2012)

Assays:
[1] = Antagonist activity at CCR2 in human PBMC assessed as inhibition of MCP1-induced chemotaxis
[2] = Antagonist activity at CCR2 in mouse monocytes assessed as inhibition of MCP1-induced chemotaxis

| Structure (SMILES) | IC50 [1] [nM] | IC50 [2] [nM] |
| --- | --- | --- |
| CCC[C@H](O)[C@H](CNCc1ccc(C)cc1C)NC(=O)CNC(=O)c1cc(C(F)(F)F)ccc1NC(=O)N1CCC1 | 4.3 |  |
| CCC[C@H](O)[C@H](CNCc1ccc(C)cc1C)NC(=O)CNC(=O)c1cc(C(F)(F)F)ccc1NC(=O)N1CCNCC1 | 10 |  |
| CCC[C@H](O)[C@H](CNCc1ccc(C)cc1C)NC(=O)CNC(=O)c1cc(C(F)(F)F)ccc1NC(=O)OC(C)(C)C | 17 |  |
| CCC[C@H](O)[C@H](CNCc1ccc(C)cc1C)NC(=O)CNC(=O)c1cc(N)cc(C(F)(F)F)c1 | 20 |  |
| CCC[C@H](O)[C@H](CNCc1ccc(C)cc1C)NC(=O)CC(=O)Nc1cc(N)cc(C(F)(F)F)c1 | 14 |  |
| CCC[C@H](O)[C@H](CNCc1ccc(C)cc1C)NC(=O)CNC(=O)c1cc(C(F)(F)F)ccc1NC(=O)N1CCOCC1 | 13 |  |
| CCC[C@H](O)[C@H](CNCc1ccc(C)cc1C)NC(=O)CNc1n[nH]c2ccc(C(F)(F)F)cc12 | 74 |  |
| CCC[C@H](O)[C@H](CNCc1ccc(C)cc1C)NC(=O)CC(=O)Nc1cc(NCC)cc(C(F)(F)F)c1 | 12 |  |
| CCC[C@H](O)[C@H](CNCc1ccc(C)cc1C)NC(=O)CC(=O)Nc1cccc(C(F)(F)F)c1 | 81 |  |

Second part, the molecule after the results:

| IC50 [1] [nM] | IC50 [2] [nM] | Structure (SMILES) |
| --- | --- | --- |
| 23 |  | CCC[C@H](O)[C@H](CNCc1ccc(C)cc1C)NC(=O)CC(=O)Nc1cc(NC)cc(C(F)(F)F)c1 |
| 24 | 4 | CCC[C@H](O)[C@H](CNCc1ccc(C)cc1C)NC(=O)CNC(=O)c1cc(C(F)(F)F)ccc1NC(=O)NCC |
| 33 |  | CCC[C@H](O)[C@H](CNCc1ccc(C)cc1C)NC(=O)CNC(=O)c1cc(C(F)(F)F)ccc1NC(C)(C)C |
| 9 |  | CCC[C@H](O)[C@H](CNCc1ccc(C)cc1C)NC(=O)CNC(=O)c1cc(C(F)(F)F)ccc1NC(C)C |
| 32 |  | CCC[C@H](O)[C@H](CNCc1ccc(C)cc1C)NC(=O)CNC(=O)c1cc(C(F)(F)F)ccc1N |
| 7.2 |  | CCC[C@H](O)[C@H](CNCc1ccc(C)cc1C)NC(=O)CNC(=O)c1cc(C(F)(F)F)ccc1NCc1ccccc1 |
| 5.2 |  | CCC[C@H](O)[C@H](CNCc1ccc(C)cc1C)NC(=O)CNC(=O)c1cc(C(F)(F)F)ccc1NC(=O)N1CCCC1 |
| 5 |  | CCC[C@H](O)[C@H](CNCc1ccc(C)cc1C)NC(=O)CNC(=O)c1cc(C(F)(F)F)ccc1NC(=O)NC |
